Consider twelve molecules from US20230010299A1, “HETEROCYCLIC TRPML1 AGONISTS” (LIBRA THERAPEUTICS, INC., priority 2019, published 2023).

Holding throughout (assay type): cell-based
For assay [1], the system named is autophagy reporter Rosella (LC3 tag) in HeK293 cell line. Put plainly: Autophagy assay (reporter Rosella, imaging). The conditions noted are these: HeK293 cells stably expressing reporter Rosella, 18 hours incubation, reference Torin-1 1 μM as max signal, read-out: Secondary Assays Autophagy qAC50. As for the experimental part: Buffers and Reagents • Tyrode's buffer with 2 mM Ca^2+ in-house solution (130 mM NaCl, 5 mM KCl, 2 mM CaCl2), 1 mM MgCl2, 5 mM NaHCO3, 20 mM HEPES in water at pH 7.4; sterile filtered) • DMSO (Sigma) • Bis-benzimide H 33342 trihydrochloride (Hoechst 33342; Sigma-Aldrich) • Reference molecule (agonist): Torin-1, (#4247, Tocris) stock 1.2 mM in DMSO, stored at −20° C.
Reporter of Autophagy and Cell Line
Reporter Rosella: a fluorescent-based chimera constitutes by two fluorescent proteins, Green and Red variants, acting as a bimodal indicator of pH. […] The reporter is fused to sequence for autophagosome localization (LC3 tag).
The reporter Rosella have been stably expressed in HeK293 cell line and used as read-out.
Experiments have been performed in 384 MTP poly-lysine coated well format. Cells have been seeded in 384-w at a density of 6000 cells/well in 25 μl/well complete growth medium without antibiotics. Twenty-four hours later, cells have been treated with compounds and incubated for further 18 hours. Then the cells have been imaged and assayed for the response to various compounds using the reporter for autophagy expressed in the cells as readout.
The experiments were performed in a 384-well format according to the following procedure: • 24 h after seeding, cells were incubated with compounds at the desired concentration, and with the reference molecule (agonist) Torin-1 at a top concentration of 1 μM (max signal), for 18 hours at 37° C. and 5% CO2. The final percentage of DMSO was 0.3% in all the conditions. • Then the culture medium was carefully removed to avoid cells detachment and to discard red phenol into the medium and that can interfere with the measurements. • Staining of the nuclei was obtained by incubating the cells with 8 μM/well of Hoechst 3342 in standard Tyrode's buffer for 20 min at RT • Then the cells were carefully washed two times with standard Tyrode's buffer • Finally, the samples were acquired by recording three fluorescence emission channels (green, red and blue) at 20× magnification and with at least 3-4 fields of view per well in an Operetta CLS microscope (PerkinElmer). • Image analysis was performed by using Harmony software (PerkinElmer). The image analysis involved the following steps: flat-field illumination correction, nuclei segmentation, cell segmentations and identification of vesicles/granules within the cytosol compartments and representing the autophagy vesicles. Measurements of signal intensity ratio (Green to Red) and number of autophagy vesicles per cells were used to obtain information on the effects of compounds on the autophagy flux. • Data from image analysis measurements were finally loaded and analyzed for normalization and fitting procedures in Genedata Screener© software.

Assay [2] concerns the target T1, TRPML1 (Homo sapiens, UniProt Q9GZU1).
T1 construct: expressed in transfected cells
Nature of the assay: Cellular TRPML1 assay (FLIPR TETRA, GCaMP6f calcium read-out). Conditions: HEK T-REx/GCaMP6f/TRPML1 cells; Ca2+ response over 300 s, normalized to ML-SA1 50 μM; Ca2+ free or Optimem condition not given; read-out: Ec50 (Activity of TRPML1 agonists). The essentials: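 HEK T-REx cells stably expressing TRPML1 and GCaMP6f, assayed 24 h after seeding in Ca2+-free Tyrode's (pH 7.4) or Opti-MEM. Compounds injected on FLIPR Tetra (0.5% DMSO) in dose-response from 100 μM (1:2) or 50 μM (1:3.16); fluorescence kinetics 300 s, referenced to 50 μM ML-SA1 stimulator control.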

The target in assay [3] is T1, TRPML1. Put plainly: TRPML1 automated patch-clamp (QPatch 16X). The conditions noted are these: HEK T-REx/GcaMP6f/TRPML1 cells, current with compound/current in vehicle, extracellular pH 4.6. Here is the method: TRPML1—Automated Patch-Clamp
HEK T-REx/GcaMP6f/TRPML1 cells were cultured in DMEM High Glucose (Lonza BioWhittaker cat. BE12-604F/U1; 500 mL) supplemented with Fetal Bovine Serum TET-FREE (Euroclone cat. EC S0182L; 50 mL, Penicillin-Streptomycin (BioWhittaker, cat. DE17-602E; 5 mL of 100× Solution), G418 (Sigma, cat. G8168; 0.25 mg/ml) and Zeocyn (InvivoGen, cat. ant-zn-1; 50 μg/ml).
HEK T-REx/GcaMP6f/TRPML1 cells were seeded 48 or 72 hours before experiment, at a concentration of 8*10^6/4*10^6 cells onto a T225 flask. Just before the experiments, cells were washed twice with D-PBS w/o Ca^2+/Mg^2+ (Euroclone cat. ECB4004L) and detached from the flask with trypsin-EDTA (Sigma cat. T4174; diluted 1/10). Cells were then re-suspended in the suspension solution: 25 mL EX-CELL ACF CHO medium(Sigma cat. C5467); 0.625 mL HEPES (Sigma cat. H0887); 0.25 mL of 100× Penicillin/Streptomycin (Euroclone cat. ECB3001D), 0.1 mL of Soybean Trypsin Inhibitor 10 mg/mL (Sigma cat. T6522) and placed on the QPatch 16X.
Dilution from stock were prepared just before the experiments in the extracellular solution (0.25% final DMSO concentration). DMSO solution was obtained from AppliChem (cat. A3672)
Patch Clamp Solutions: • Intracellular solution (mM): 120 CsMeSO3, 4 NaCl, 2 MgCl2, 10 EGTA, 20 HEPES, 2 Mg-ATP (pH 7.2 with CsOH). • Extracellular solution (mM): 140 NaGluconate, 5 KCl, 1 MgCl2, 2 CaCl2), 10 Glucose, 10 MES (pH 4.6 with HCl).
Patch Clamp Analysis—QPatch 16X
For the voltage clamp experiments on TRPML1, data were sampled at 5 KHz. After establishment of the seal and the passage in the whole cell configuration, the cells were held at −20 mV and the TRPML1 current was evoked using the voltage protocol illustrated in FIG. 2, applied every 5 sec. (50 ms at −20 mV; 20 ms at −120 mV, 1000 ms ramp from −120 to […]; 20 ms at +40 mV, and back to −20 mV); in the absence (vehicle period, i.e. 0.25% DMSO) and in the presence of increasing concentrations (3) of the compound under investigation.
Agonists: For data collection, the Sophion proprietary software was used and the analysis was performed off-line using Excel and GraphPad Prism (V 8.00). Results are reported in Table 6, expressed as TRPML1 current fold increase evoked by the compound under investigation (i.e. current in the presence of the compound/current in vehicle).

Where two headings read alike, the source gives them in different places.

T1 sequence (Q9GZU1 whole entry): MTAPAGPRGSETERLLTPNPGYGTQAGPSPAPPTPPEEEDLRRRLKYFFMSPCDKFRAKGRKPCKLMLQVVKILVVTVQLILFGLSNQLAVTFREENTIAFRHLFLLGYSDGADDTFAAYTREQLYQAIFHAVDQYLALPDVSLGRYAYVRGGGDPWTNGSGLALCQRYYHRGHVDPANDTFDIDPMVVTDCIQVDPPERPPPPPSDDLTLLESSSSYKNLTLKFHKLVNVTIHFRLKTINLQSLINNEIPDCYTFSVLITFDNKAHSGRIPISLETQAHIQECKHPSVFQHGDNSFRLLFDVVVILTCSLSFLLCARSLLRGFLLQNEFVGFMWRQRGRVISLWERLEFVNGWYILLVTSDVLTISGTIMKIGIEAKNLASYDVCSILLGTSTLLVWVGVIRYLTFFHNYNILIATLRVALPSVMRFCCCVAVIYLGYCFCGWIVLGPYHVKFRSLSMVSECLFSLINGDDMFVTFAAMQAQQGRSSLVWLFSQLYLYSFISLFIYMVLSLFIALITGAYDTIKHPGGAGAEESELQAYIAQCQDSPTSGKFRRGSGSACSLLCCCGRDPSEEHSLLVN

Regarding `Cc1nc(S(=O)(=O)Nc2ccccc2N2CCC(Oc3ccccn3)CC2)c(C)s1` [Example 99, 2,5-dimethyl-N-(2-(4-(pyridin-2-yloxy)piperidin-1-yl)phenyl)thiazole-4-sulfonamide], the EC50 in assay [1] (Homo sapiens) amounted to 6 µM; on TRPML1 [2], 5 µM.
On the same counts, the results for `CCN(C(=O)c1ccc(S(=O)(=O)N(C)C)cc1)c1ccccc1N1CCN(C(=O)OC(C)(C)C)CC1` [Example 20, tert-butyl 4-(2-(4-(N,N-dimethylsulfamoyl)-N-ethylbenzamido)phenyl)piperazine-1-carboxylate] are 0.46 µM and 3.4 µM.
On the same counts, the results for `CCCOC1CCN(c2ccccc2NS(=O)(=O)c2cc(C)sc2C)CC1` [Example 68, 2,5-dimethyl-N-(2-(4-propoxypiperidin-1-yl)phenyl)thiophene-3-sulfonamide] are 15.3 µM and 4.6 µM.
Consider `CC(C)N(C(=O)c1ccc(S(C)(=O)=O)cc1)c1ccccc1N1CCN(C(=O)OC(C)(C)C)CC1` [Example 96, tert-butyl 4-(2-(N-isopropyl-4-(methylsulfonyl)benzamrdo)phenyl)piperazine-1-carboxylate], for which the EC50 in assay [1] amounted to 11.2 µM; at TRPML1 [2], 7.3 µM.
In the case of `Cc1ccc(S(=O)(=O)Nc2ccccc2N2CCC(Oc3ccccn3)CC2)c(C)c1` [Example 65, 2,4-dimethyl-N-(2-(4-(pyridin-2-yloxy)piperidin-1-yl)phenyl)benzenesulfonamide], the EC50 is 31.4 µM in assay [1] (Homo sapiens) and 3.5 µM at TRPML1 [2].
On the same counts, the results for `CC(C)N(C(=O)c1ccc(S(=O)(=O)N(C)C)cc1)c1ccccc1N1CCN(C(=O)OC(C)(C)C)CC1` [Example 46, tert-butyl 4-(2-(4-(N,N-dimethylsulfamoyl)-N-isopropylbenzamido)phenyl)piperazine-1-carboxylate] are 1.3 µM and 9.4 µM.
Regarding `Cc1cc(S(=O)(=O)Nc2ccccc2N2CCN(C(=O)OC(C)(C)C)CC2)c(C)o1` [Example 58, tert-butyl 4-(2-((2,5-dimethylfuran)-3-sulfonamido)phenyl)piperazine-1-carboxylate], the EC50 in assay [1] (Homo sapiens) is 22.4 µM; at TRPML1 [2], 2.3 µM.
On the same counts, the results for `CN(C)S(=O)(=O)c1ccc(S(=O)(=O)Nc2ccccc2N2CCC(F)(F)CC2)cc1` [Example 33, N4-[2-(4,4-difluoropiperidin-1-yl)phenyl]-N1,N1-dimethylbenzene-1,4-disulfonamide] are 1.3 µM and 10.8 µM.
Take `Cc1ccc(S(=O)(=O)Nc2ccccc2N2CCN(C(=O)OC(C)(C)C)CC2)cc1` [Example 83, t-butyl 4-[2-(4-methylbenzenesulfonamido)phenyl]piperazine-1-carboxylate]: the “Qpatch Assay TRPML1 agonism Current fold increase Mean ± SEM (n)” value on TRPML1 [3] (0.3 μM compound) is on record as 70.2 ± 13.8 (4); at TRPML1 [3] (3.0 μM compound), 125.0 ± 31.0 (4); on TRPML1 [3] (30 μM compound), 140.3 ± 36.8 (4). The EC50 on TRPML1 [2] was determined as 1.8 µM.
For the molecule `COC1CCCN(c2ccccc2NS(=O)(=O)c2ccc(S(=O)(=O)N(C)C)cc2)CC1` (racemic) [Example 40, N1-(2-(4-methoxyazepan-1-yl)phenyl)-N4,N4-dimethylbenzene-1,4-disulfonamide], the EC50 in assay [1] (Homo sapiens) stood at 1.3 µM; on TRPML1 [2] it was 3 µM.
`COc1ccc(S(=O)(=O)Nc2ccccc2N2CCN(C(=O)OC(C)(C)C)CC2)cc1` [Example 84, t-butyl 4-[2-(4-methoxybenzenesulfonamido)phenyl]piperazine-1-carboxylate]: the “Qpatch Assay TRPML1 agonism Current fold increase Mean ± SEM (n)” value on TRPML1 [3] (0.3 μM compound) is listed as 8.6 ± 1.3 (2); at TRPML1 [3] (3.0 μM compound), 32.9 ± 3.5 (2); at TRPML1 [3] (30 μM compound) it was 42.7 ± 1.4 (2). Further, the EC50 at TRPML1 [2] came out at 4.2 µM.
For `CCc1ccc(S(=O)(=O)Nc2ccccc2N2CCC(C(=O)OC(C)(C)C)CC2)cc1` [Example 19, tert-butyl 1-(2-((4-ethylphenyl)sulfonamido)phenyl)piperidine-4-carboxylate], the EC50 in assay [1] (Homo sapiens) worked out at 0.6 µM; at TRPML1 [2] it was 2.1 µM.
